Data as given in patent publication US4370474A, “11-Deoxy-carminomycin compounds” (Farmitalia Carlo Erba S.p.A., priority 1978, dated 1983).
Counter-ions that a name gives are not always drawn. Like-named read-outs stand apart in the source and are kept apart here.

Experiments:
HeLa cells = assay: Effect on HeLa cells viability in vitro; type: cell-based; conditions: Homo sapiens, read-out: Effect of HeLa cells viability in vitro ID50
Method: (§1) The new antibiotics W, Y and Z have been tested against HeLa cells in vitro (time of exposure to the drugs: 24 hours), and on L 1210 and P 388 leukemia in mice in comparison with daunorubicin.
(a) HeLa cells were exposed to the drugs for 24 hrs, then plated.

L 1210 leukemia = assay: Antitumor activity on L 1210 leukemia in mice; type: in vivo; conditions: for L-1210 Toxic deaths: evaluated on macroscopic findings
Method: as §1
(§2) (b) Mice were treated i.p. on day 1 after tumor cell inoculation.
(§3) (c) Evaluated on the basis of macroscopic findings.

P 388 leukemia = assay: Antitumor activity on P 388 leukemia in mice; type: in vivo; conditions: for P-388 Toxic deaths: evaluated on macroscopic findings
Method: as §1, §2, §3

Solubility = type: physicochemical; conditions: aglycone from acid hydrolysis
[1] = 2.9 mg/kg i.p. on day 1 after tumor cell inoculation
[2] = 4.4 mg/kg i.p. on day 1 after tumor cell inoculation
[3] = 6.6 mg/kg i.p. on day 1 after tumor cell inoculation
[4] = HeLa cells exposed to the drugs for 24 hrs, then plated
[5] = 1.0 mg/kg i.p. on day 1 after tumor cell inoculation
[6] = 1.2 mg/kg i.p. on day 1 after tumor cell inoculation
[7] = 1.9 mg/kg i.p. on day 1 after tumor cell inoculation

## COc1cccc2c1C(=O)c1c(O)c3c(c(O)c1C2=O)C[C@@](O)(C(C)=O)C[C@@H]3O[C@H]1C[C@H](N)[C@H](O)[C@H](C)O1 [Daunorubicin.HCl, daunorubicin, reference compound]
HeLa cells; HeLa, 24 h
  IC50: 7.5 ng/mL
L 1210 leukemia; [1]
  L-1210 T/C: 144-150%
L 1210 leukemia; 4.4 mg/kg i.p. on day 1
  L-1210 Toxic deaths: 1/20
L 1210 leukemia; [2]
  L-1210 T/C: 140-162%
L 1210 leukemia; 6.6 mg/kg i.p. on day 1
  L-1210 Toxic deaths: 3/19
L 1210 leukemia; [3]
  L-1210 T/C: 144-162%
P 388 leukemia; 2.9 mg/kg i.p. on day 1
  P-388 Toxic deaths: 2/8
P 388 leukemia; [1]
  P-388 T/C: 170%
P 388 leukemia; 4.4 mg/kg i.p. on day 1
  P-388 Toxic deaths: 6/8
P 388 leukemia; [2]
  P-388 T/C: 175%
P 388 leukemia; 6.6 mg/kg i.p. on day 1
  P-388 Toxic deaths: 7/8
P 388 leukemia; [3]
  P-388 T/C: 160%

## CC(=O)[C@]1(O)Cc2cc3c(c(O)c2[C@@H](O)C1)C(=O)c1c(O)cccc1C3=O [aglycone of the antibiotic Y]
Solubility
  solubility in water: water insoluble

## C[C@@H]1O[C@@H](O[C@H]2C[C@](O)(C(=O)CO)Cc3cc4c(c(O)c32)C(=O)c2c(O)cccc2C4=O)C[C@H](N)[C@@H]1O [Antibiotic W.HCl]
HeLa cells; [4]
  IC50: 8.8 ng/mL
P 388 leukemia; 1.0 mg/kg i.p. on day 1
  P-388 Toxic deaths: 0/10
P 388 leukemia; [5]
  P-388 T/C: 159%
P 388 leukemia; 1.5 mg/kg i.p. on day 1
  P-388 Toxic deaths: 0/20
P 388 leukemia; 1.5 mg/kg i.p. on day 1 after tumor cell inoculation
  P-388 T/C: 172%
P 388 leukemia; 2.25 mg/kg i.p. on day 1
  P-388 Toxic deaths: 0/20
P 388 leukemia; 2.25 mg/kg i.p. on day 1 after tumor cell inoculation
  P-388 T/C: 163%
P 388 leukemia; 3.4 mg/kg i.p. on day 1
  P-388 Toxic deaths: 0/10
P 388 leukemia; 3.4 mg/kg i.p. on day 1 after tumor cell inoculation
  P-388 T/C: 190%
P 388 leukemia; 5.0 mg/kg i.p. on day 1
  P-388 Toxic deaths: 1/9
P 388 leukemia; 5.0 mg/kg i.p. on day 1 after tumor cell inoculation
  P-388 T/C: 204%

## CC[C@]1(O)Cc2cc3c(c(O)c2[C@@H](O[C@H]2C[C@H](N)[C@H](O)[C@H](C)O2)C1)C(=O)c1c(O)cccc1C3=O [Antibiotic Z.HCl]
HeLa cells; [4]
  IC50: 15 ng/mL
L 1210 leukemia; [1]
  L-1210 T/C: 125%
L 1210 leukemia; 4.4 mg/kg i.p. on day 1
  L-1210 Toxic deaths: 2/10
L 1210 leukemia; [2]
  L-1210 T/C: 131%
L 1210 leukemia; 6.6 mg/kg i.p. on day 1
  L-1210 Toxic deaths: 5/10
L 1210 leukemia; [3]
  L-1210 T/C: 137%
P 388 leukemia; [5]
  P-388 T/C: 140%
P 388 leukemia; 2.0 mg/kg i.p. on day 1 after tumor cell inoculation
  P-388 T/C: 140%
P 388 leukemia; 4.4 mg/kg i.p. on day 1
  P-388 Toxic deaths: 7/8
P 388 leukemia; [2]
  P-388 T/C: 100%

## CC(=O)[C@]1(O)Cc2cc3c(c(O)c2[C@@H](O[C@H]2C[C@H](N)[C@H](O)[C@H](C)O2)C1)C(=O)c1c(O)cccc1C3=O [Antibiotic Y.HCl]
HeLa cells; [4]
  IC50: 9.6 ng/mL
L 1210 leukemia; 0.8 mg/kg i.p. on day 1 after tumor cell inoculation
  L-1210 T/C: 111%
L 1210 leukemia; [6]
  L-1210 T/C: 128%
L 1210 leukemia; [7]
  L-1210 T/C: 122%
L 1210 leukemia; 2.9 mg/kg i.p. on day 1
  L-1210 Toxic deaths: 8/10
L 1210 leukemia; [1]
  L-1210 T/C: 111%
P 388 leukemia; [6]
  P-388 T/C: 145%
P 388 leukemia; [7]
  P-388 T/C: 159%
